# Reference: patent publication US20170152258A9, “Substituted Pyridopyrazines as Syk Inhibitors” (HUTCHISON MEDIPHARMA LIMITED, priority 2012, published 2017)
# Experiments:
# Syk kinase = Syk kinase (Homo sapiens, UniProt P43405); assay: SYK Enzymatic Assay (Z-LYTE Tyr 2 peptide); assay type: biochemical; conditions: 8 concentrations 1 μM down to 0.0003 μM
# How it was run: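 Z-LYTE format using Tyr 2 peptide. After the 1 h room-temperature kinase reaction, development reagent was added for 1 h, then stop reagent. Fluorescence was read at 445 and 520 nm. Compounds were tested at 8 concentrations, 1 μM down to 0.0003 μM (1:3 dilutions).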
# RBL-2H3 cells = assay: IgE-induced Beta-hexosaminidase secretion in RBL-2H3 cells; assay type: cell-based; conditions: DNP-BSA stimulation
# How it was run: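 RBL-2H3 cells sensitized overnight with 0.5 ug/ml SPE-7 IgE, washed, preincubated with compound 20 min at 37° C, then stimulated with DNP-BSA (150 ng/mL stock) for 45 min. Released β-hexosaminidase measured on supernatant with 1 mM 4-nitrophenyl N-acetyl-β-D-glucosaminide, pH 4.5, 1.5 hr at 37° C; absorbance 405 nm after carbonate quench.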
# [1] = Rattus norvegicus, RBL-2H3, IgE-induced Beta-hexosaminidase secretion
Structure (SMILES),IC50 (Syk kinase) [nM],IC50 (RBL-2H3 cells; [1]) [nM],IC50 (RBL-2H3 cells; IgE-induced Beta-hexosaminidase secretion) [nM]
CNS(=O)(=O)N1CCOC(COc2nc(-c3ccc(C(C)(C)O)cc3)cc3nccnc23)C1 (centres unmarked) [Compound 262],79,269,–
CN(C)CCS(=O)(=O)N1CCO[C@H](COc2nc(-c3ccc(N4CCOCC4)cc3)cc3nccnc23)C1 [Compound 65],53,181,–
Cc1cc(-c2cc3nccnc3c(OC[C@@H]3CN(C(=O)[C@H](C)O)CCO3)n2)ccc1N(C)C [Compound 201],49,100,–
CC(=O)N(C)Cc1ccc(-c2cc3nccnc3c(OC[C@@H]3CN(S(C)(=O)=O)CCO3)n2)cc1 [Compound 259],54,297,–
C[C@@H](O)C(=O)N1CCO[C@H](COc2nc(-c3ccc(N(C)C)cc3)cc3nccnc23)C1 [Compound 196],67,128,–
CC(C)C(=O)N1CCO[C@H](COc2nc(-c3ccc(N(C)C)cc3)cc3nccnc23)C1 [Compound 68],63,110,–
"COc1ccc(-c2cc3nccnc3c(OC[C@@H]3CN(C(N)=O)CCO3)n2)cc1OC [Compound 142, (S)-2-(((7-(3,4-dimethoxyphenyl)pyrido[3,4-b]pyrazin-5-yl)oxy)methyl)morpholine-4-carboxamide]",68,950,–
CN1CCCc2cc(-c3cc4nccnc4c(OC[C@@H]4CN(S(N)(=O)=O)CCO4)n3)ccc21 [Compound 208],13,20,–
CN(C)c1ccc(-c2cc3nccnc3c(OC[C@@H]3CN(C(=O)c4ncc[nH]4)CCO3)n2)cc1 [Compound 86],110,616,–
CNC(=O)CS(=O)(=O)N1CCO[C@H](COc2nc(-c3ccc(N(C)C)cc3)cc3nccnc23)C1 [Compound 99],23,106,–
CC(=O)N1CCO[C@H](COc2nc(-c3ccc(N4CCN(C)CC4)c(C)c3)cc3nccnc23)C1 [Compound 186],81,114,–
N#CC1(c2ccc(-c3cc4nccnc4c(OC[C@@H]4CN(S(N)(=O)=O)CCO4)n3)cc2)CCC1 [Compound 294],51,218,132
CN(C)c1ccc(-c2cc3nccnc3c(OC[C@@H]3CN(C(=O)C4CCOCC4)CCO3)n2)cc1 [Compound 73],204,142,–
CS(=O)(=O)N1CCO[C@H](COc2nc(-c3ccc(N4CCCCC4)cc3)cc3nccnc23)C1 [Compound 21],30,88,–
"CC(=O)N1CCO[C@H](COc2nc(-c3ccc(N(C)C(C)C)cc3)cc3nccnc23)C1 [Compound 144, (S)-1-(2-(((7-(4-(isopropyl(methyl)amino)phenyl)pyrido[3,4-b]pyrazin-5-yl)oxy)methyl)morpholino)ethanone]",57,80,–
CN(C)c1ccc(-c2cc3nccnc3c(OC[C@@H]3CN(S(=O)(=O)CCN4CC[C@@H](O)C4)CCO3)n2)cc1 [Compound 102],38,108,–
CN(C)c1ccc(-c2cc3nccnc3c(OC[C@@H]3CN(C(N)=O)CCO3)n2)cc1Cl [Compound 165],48,95,–
CNc1ccc(-c2cc3nccnc3c(O[C@@H]3CCOC3)n2)cc1 [Compound 133],45,24,–
CC(=O)N1CCN(c2ccc(-c3cc4nccnc4c(OC[C@@H]4CN(S(C)(=O)=O)CCO4)n3)cc2)CC1 [Compound 122],15,73,–
Cn1ncc2cc(-c3cc4nccnc4c(OC[C@@H]4CN(S(C)(=O)=O)CCO4)n3)ccc21 [Compound 105],39,77,–
CN1CCc2cc(-c3cc4nccnc4c(OC[C@@H]4CN(C(N)=O)CCO4)n3)ccc21 [Compound 216],49,122,–
COCCS(=O)(=O)N1CCO[C@H](COc2nc(-c3ccc(N4CCOCC4)cc3)cc3nccnc23)C1 [Compound 66],58,230,–
CN(C)c1ccc(-c2cc3nccnc3c(OC[C@@H]3CN(C(=O)[C@H]4CC[C@H](O)CC4)CCO3)n2)cc1 [Compound 74],127,186,–
